Each structure is given as a SMILES string. Counter-ions that a name gives are not always drawn. Some results are limits rather than exact numbers.

Among the data in patent US10183944B2 (Asana Biosciences, LLC, priority 2011, dated 2019) are IC50 values, retold here.

For the experiment, the target named is Syk (356-635 amino acids) catalytic domain (Homo sapiens (Human), UniProt P43405). The experiment in a line: Inhibition of enzymatic Syk kinase activity (radiometric). In kind it is biochemical. The conditions noted are these: read-out: IC50 Syk. An excerpt:
The objective of this assay was to examine by radiometric method the ability of compounds to inhibit Syk kinase enzyme. Syk is capable of phosphorylating substrates such as VAV, LAT, SLP-76, which in turn activate MAPK, PLCγ signaling pathways. […] This in vitro assay tests the ability of syk to phosphorylate a substrate peptide in the presence of ATP. By using a radio-labeled form of ATP, it is possible to measure the amount of phosphorylation of the substrate. The enzyme transfers a radio-labeled phosphate group from γ32 P labeled ATP to pG4T. Briefly the enzyme was incubated with substrate, radio-labeled & cold ATP and substrate in buffer with or without compounds. At the end of the reaction, the reaction mixture was transferred on to a Multiscreen filter plate and unreacted γ^32P ATP was washed off. The filter plate was dried and the radioactivity was measured on a scintillation counter to estimate the incorporated radioactivity on the substrate. The percent inhibition of activity of the enzyme was calculated by comparing counts in the presence and absence of compounds. […] 2.5 μL of 10% DMSO or compound in 10% DMSO was added to the wells in a 96 well V-bottom plate. Optimized concentration of in-house Syk enzyme (different batches of Syk (356-635) kinase domain) were used at optimized concentrations) ranging from 0.035 ng to 7.5 ng/reaction diluted in assay buffer was added to a total volume of 12.5 μL). Compound and protein were incubated for 30 minutes at room temperature on a plate shaker. Ten μL of a substrate mix containing 100 μM ATP (0.25 μL), γ-P^32-ATP (0.1 μL; 10 μCi/μL), pG4T (0.25 μL; 10 mg/mL) and 1× assay buffer (9.4 μL) was added to all the wells. Samples were incubated at 30° C. for 10 minutes after mixing. The reaction was stopped by the addition of 8N HCl (13 μL) containing 100 mM ATP. Thirty μL of sample was transferred to the center of a 2×2 cm^2 Whatman® P81 chromatography paper. After allowing the sample to dry for one minute, the assay squares were washed 3 times for 5 minutes each in ortho-phosphoric acid (0.5%) and once in acetone. Assay squares were dried for 15 minutes in a 30° C. oven and transferred to 96 well optiplate. Microscint-O® reagent (100 μL, Perkin Elmer) was added to each well, the plate was sealed with Topseal®-A microplates and incubated for 10 minutes at room temperature at very low speed on rocker and the plate was read in the Topcount® NXL instrument. The following calculations were made: Fold induction=radioactivity counts (uncorrected values) in positive control/substrate control.

As usually defined, the IC50 is the concentration that inhibits the measured activity by half. Take `O=c1[nH]ncc2nc(N3CCCCCC3)nc(Nc3ccc(N4CCC(CCCO)CC4)cc3)c12` [Example 194, 2-(azepan-1-yl)-4-((4-(4-(3-hydroxypropyl)piperidin-1-yl)phenyl)amino)pyrimido[4,5-d]pyridazin-5(6H)-one]: the 50% inhibitory concentration (IC50) was greater than 100 nM.

On to `N#CCC1CCN(c2nc(Nc3ccc(OC(F)(F)F)cc3)c3c(=O)[nH]ncc3n2)CC1` [Example 301, 2-(1-(5-oxo-4-((4-(trifluoromethoxy)phenyl)amino)-5,6-dihydropyrimido[4,5-d]pyridazin-2-yl)piperidin-4-yl) acetonitrile], for which the 50% inhibitory concentration (IC50) was greater than 100 nM.

With `CS(=O)(=O)c1ccc(Nc2nc(N3CCC(CC#N)CC3)nc3cn[nH]c(=O)c23)cc1` [Example 333, 2-(1-(4-((4-(methylsulfonyl)phenyl)amino)-5-oxo-5,6-dihydropyrimido[4,5-d]pyridazin-2-yl)piperidin-4-yl) acetonitrile], the IC50 was greater than 100 nM.

On to `COc1ccc(Nc2nc(N3CCC(CC#N)CC3)nc3cn[nH]c(=O)c23)cc1OC` [Example 319, 2-(1-(4-((3,4-dimethoxyphenyl)amino)-5-oxo-5,6-dihydropyrimido[4,5-d]pyridazin-2-yl)piperidin-4-yl)acetonitrile], for which the IC50 was greater than 100 nM.

As for `CC(C)(C#N)C1CCN(c2ccc(Nc3nc(-c4ccccc4)nc4cn[nH]c(=O)c34)cc2)CC1` [Example 119, 2-methyl-2-(1-(4-((5-oxo-2-phenyl-5,6-dihydropyrimido[4,5-d]pyridazin-4-yl)amino)phenyl)piperidin-4-yl) propanenitrile], the IC50 was greater than 100 nM.

Turning to `COc1cccc(Nc2nc(N3CCCCCC3)nc3cn[nH]c(=O)c23)c1` [Example 320, 2-(azepan-1-yl)-4-((3-methoxyphenyl)amino)pyrimido[4,5-d]pyridazin-5(6H)-one], the IC50 was greater than 100 nM.

As to `CN(C)CCN(C)C(=O)c1ccc(Nc2nc(-c3ccccc3)nc3cn[nH]c(=O)c23)cc1` [Example 15, N-(2-(dimethylamino)ethyl)-N-methyl-4-(5-oxo-2-phenyl-5,6-dihydropyrimido[4,5-d]pyridazin-4-ylamino)benzamide], the IC50 was greater than 100 nM.

On to `COc1nc(Nc2ccc(CN3CCNCC3)cc2)c2c(=O)[nH]ncc2n1` [Example 61, 2-methoxy-4-((4-(piperazin-1-ylmethyl)phenyl)amino)pyrimido[4,5-d]pyridazin-5(6H)-one hydrochloride], for which the IC50 is greater than 100 nM.

Take `COc1cc(Nc2nc(N3CCCCCC3)nc3cn[nH]c(=O)c23)cc(OC)c1OC` [Example 67, 2-(azepan-1-yl)-4-((3,4,5-trimethoxyphenyl)amino)pyrimido[4,5-d]pyridazin-5(6H)-one]: the IC50 is greater than 100 nM.

Take `N#CC1CCN(c2nc(Nc3ccc(CN4CCC(C(=O)O)CC4)cc3)c3c(=O)[nH]ncc3n2)CC1` [Example 76, 1-(4-((2-(4-cyanopiperidin-1-yl)-5-oxo-5,6-dihydropyrimido[4,5-d]pyrimido[4,5-d]pyridazin-4-yl)amino)benzyl)piperidine-4-carboxylic acid]: the IC50 is greater than 100 nM.

As for `N#CCC1CCN(CCN2CCC(Nc3nc(N4CCCCCC4)nc4cn[nH]c(=O)c34)CC2)CC1` [Example 204, 2-(1-(2-(4-((2-(azepan-1-yl)-5-oxo-5,6-dihydropyrimido[4,5-d]pyridazin-4-yl)amino)piperidin-1-yl)ethyl)piperidin-4-yl)acetonitrile], the IC50 is greater than 100 nM.

For `NCC(=O)N1CCN(c2ccc(Nc3nc(-c4ccccc4)nc4cn[nH]c(=O)c34)cc2)CC1` [Example 14, 4-(4-(4-(2-aminoacetyl)piperazin-1-yl)phenylamino)-2-phenylpyrimido[4,5-d]pyridazin-5(6H)-one], the IC50 is less than 10 nM.

With `O=c1[nH]ncc2nc(N3CCCCCC3)nc(Nc3ccc(F)cc3)c12` [Example 313, 2-(azepan-1-yl)-4-((4-fluorophenyl)amino)pyrimido[4,5-d]pyridazin-5(6H)-one], the IC50 was greater than 100 nM.

`O=c1[nH]ncc2nc(-c3ccccc3)nc(Nc3ccc(OCCN4CCOCC4)cc3)c12` [Example 94, 4-((4-(2-morpholinoethoxy)phenyl)amino)-2-phenylpyrimido[4,5-d]pyridazin-5(6H)-one]: the IC50 is less than 100 nM.

`O=C(O)CC1CCN(c2ccc(Nc3nc(C4CCCCCC4)nc4cn[nH]c(=O)c34)cc2)CC1` [Example 90, 2-(1-(4-((2-cycloheptyl-5-oxo-5,6-dihydropyrimido[4,5-d]pyridazin-4-yl)amino)phenyl)piperidin-4-yl)acetic acid]: the IC50 was less than 100 nM.

For the compound `N#CCC1CCN(c2ccc(Nc3nc(N4CCCCCC4)nc4cn[nH]c(=O)c34)cn2)CC1` [Example 97, 2-(1-(5-((2-(azepan-1-yl)-5-oxo-5,6-dihydropyrimido[4,5-d]pyridazin-4-yl)amino)pyridin-2-yl)piperidin-4-yl) acetonitrile], the IC50 is greater than 100 nM.

On to `O=C1CC2(CCN(c3ccc(Nc4nc(-c5ccccc5)nc5cn[nH]c(=O)c45)cc3)CC2)N1` [Example 16, 4-(4-(2-oxo-1,7-diazaspiro[3.5]nonan-7-yl)phenylamino)-2-phenylpyrimido[4,5-d]pyridazin-5(6H)-one], for which the IC50 is greater than 100 nM.

In the case of `N#CCC1CCN(c2nc(Nc3ccc(CO)cc3)c3c(=O)[nH]ncc3n2)CC1` [Example 332, 2-(1-(4-((4-(hydroxymethyl)phenyl)amino)-5-oxo-5,6-dihydropyrimido[4,5-d]pyridazin-2-yl)piperidin-4-yl) acetonitrile], the IC50 was less than 100 nM.

For `N#CCC1CCN(c2nc(Nc3ccc(N4CCN(CCN)CC4)cc3)c3c(=O)[nH]ncc3n2)CC1` [Example 257, 2-(1-(4-((4-(4-(2-aminoethyl)piperazin-1-yl)phenyl)amino)-5-oxo-5,6-dihydropyrimido[4,5-d]pyridazin-2-yl)piperidin-4-yl)acetonitrile], the IC50 is less than 10 nM.

For the compound `CC1CN(c2nc(Nc3ccc(OCCN4CCNCC4)cc3)c3c(=O)[nH]ncc3n2)CC(C)O1` (stereo not drawn) [Example 177, 2-(2,6-dimethylmorpholino)-4-((4-(2-(piperazin-1-yl)ethoxy)phenyl)amino) pyrimido[4,5-d]pyridazin-5(6H)-one], the IC50 is greater than 100 nM.

Turning to `O=c1[nH]ncc2nc(-c3ccccc3)nc(Nc3cnn(CCN4CCNCC4)c3)c12` [Example 63, 2-phenyl-4-((1-(2-(piperazin-1-yl)ethyl)-1H-pyrazol-4-yl)amino)pyrimido[4,5-d]pyridazin-5(6H)-one hydrochloride], the IC50 was greater than 100 nM.

As for `N#CC1CCN(c2nc(Nc3ccc(N4CCC5(CC4)CC5C(=O)O)cc3)c3c(=O)[nH]ncc3n2)CC1` (stereo not drawn) [Example 74, 6-(4-((2-(4-cyanopiperidin-1-yl)-5-oxo-5,6-dihydropyrimido[4,5-d]pyridazin-4-yl)amino)phenyl)-6-azaspiro[2.5]octane-1-carboxylic acid], the IC50 is greater than 100 nM.

Consider `N#CC1CCN(c2nc(Nc3ccc(OCCN4CCNCC4)cc3)c3c(=O)[nH]ncc3n2)CC1` [Example 149, 1-(5-oxo-4-((4-(2-(piperazin-1-yl)ethoxy)phenyl)amino)-5,6-dihydropyrimido[4,5-d]pyridazin-2-yl)piperidine-4-carbonitrile], for which the IC50 was greater than 100 nM.

Regarding `O=c1[nH]ncc2nc(N3CCCCCC3)nc(Nc3ccc(N4CCC(F)(F)CC4)cc3)c12` [Example 279, 2-(azepan-1-yl)-4-((4-(4,4-difluoropiperidin-1-yl)phenyl)amino) pyrimido[4,5-d]pyridazin-5(6H)-one], the IC50 was greater than 100 nM.

Regarding `O=C(O)C1CC12CCN(c1ccc(Nc3nc(-c4ccncc4)nc4cn[nH]c(=O)c34)cc1)CC2` (stereo not drawn) [Example 138, 6-(4-((5-oxo-2-(pyridin-4-yl)-5,6-dihydropyrimido[4,5-d]pyridazin-4-yl)amino)phenyl)-6-azaspiro[2.5]octane-1-carboxylic acid], the IC50 was greater than 100 nM.

`N#CC1CCN(c2nc(Nc3ccc(N4CCC(CC(=O)O)CC4)cc3)c3c(=O)[nH]ncc3n2)CC1` [Example 75, 2-(1-(4-((2-(4-cyanopiperidin-1-yl)-5-oxo-5,6-dihydropyrimido[4,5-d]pyridazin-4-yl)amino)phenyl)piperidin-4-yl)acetic acid]: the IC50 is less than 100 nM.

For the compound `N#CCC1CCN(c2nc(Nc3ccc(CN4CCC(C(=O)O)CC4)cc3)c3c(=O)[nH]ncc3n2)CC1` [Example 78, 1-(4-((2-(4-(cyanomethyl)piperidin-1-yl)-5-oxo-5,6-dihydropyrimido[4,5-d]pyridazin-4-yl)amino)benzyl)piperidine-4-carboxylic acid], the IC50 is less than 100 nM.
